Assay results published in ChEMBL document CHEMBL1201862, “PubChem BioAssay data set” (2004).
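Briefly, cells in 96-well plates were exposed to five compound concentrations for 48 h, and endpoints were estimated by linear interpolation. GI50: concentration for 50% inhibition of growth.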 Active and inactive are the calls of the source. No stated cut-off is given here; in the data, active = GI50 up to about 1.1 µM and inactive = higher.

How the values were obtained:
Experiment in all cases: growth of human tumour cells (NCI), 48 h
786-0 = test system: 786-0
A498 = test system: A498
A549 = test system: A549
ACHN = test system: ACHN
CCRF-CEM = test system: CCRF-CEM
COLO 205 = test system: COLO 205
DLD-1 = test system: DLD-1
DMS-114 = test system: DMS-114
DMS-273 = test system: DMS-273
EKVX = test system: EKVX
HCC 2998 = test system: HCC 2998
HCT-116 = test system: HCT-116
HCT-15 = test system: HCT-15
HL-60 = test system: HL-60
HOP-18 = test system: HOP-18
HOP-62 = test system: HOP-62
HOP-92 = test system: HOP-92
HT-29 = test system: HT-29
IGROV-1 = test system: IGROV-1
K562 = test system: K562
KM-20L2 = test system: KM-20L2
KM12 = test system: KM12
LOX IMVI = test system: LOX IMVI
LXFL 529 = test system: LXFL 529
M14 = test system: M14
M19-MEL = test system: M19-MEL
MOLT-4 = test system: MOLT-4
Malme-3M = test system: Malme-3M
NCI-H226 = test system: NCI-H226
NCI-H23 = test system: NCI-H23
NCI-H460 = test system: NCI-H460
OVCAR-3 = test system: OVCAR-3
OVCAR-4 = test system: OVCAR-4
OVCAR-5 = test system: OVCAR-5
OVCAR-8 = test system: OVCAR-8
RPMI-8226 = test system: RPMI-8226
RXF 393 = test system: RXF 393
RXF 631 = test system: RXF 631
SF-268 = test system: SF-268
SF-295 = test system: SF-295
SF-539 = test system: SF-539
SK-MEL-28 = test system: SK-MEL-28
SK-MEL-2 = test system: SK-MEL-2
SK-MEL-5 = test system: SK-MEL-5
SK-OV-3 = test system: SK-OV-3
SN12C = test system: SN12C
SNB-75 = test system: SNB-75
SNB-78 = test system: SNB-78
SR = test system: SR
TK-10 = test system: TK-10
U-251 = test system: U-251
UACC-257 = test system: UACC-257
UACC-62 = test system: UACC-62
UO-31 = test system: UO-31
CAKI-1 = test system: CAKI-1
NCI-H522 = test system: NCI-H522
SNB-19 = test system: SNB-19
SW-620 = test system: SW-620

O=S(=O)(N/N=C/c1cccc(/C=N/NS(=O)(=O)c2ccccc2)c1)c1ccccc1
GI50 (786-0): > 100 µM (inactive)
GI50 (A498): > 100 µM (inactive)
GI50 (A549): 79.6 µM (inactive)
GI50 (ACHN): 68.7 µM (inactive)
GI50 (CCRF-CEM): 76.4 µM (inactive)
GI50 (COLO 205): 38.3 µM (inactive)
GI50 (DLD-1): 81.5 µM (inactive)
GI50 (DMS-114): 47.4 µM (inactive)
GI50 (DMS-273): > 100 µM (inactive)
GI50 (EKVX): 77.6 µM (inactive)
GI50 (HCC 2998): > 100 µM (inactive)
GI50 (HCT-116): 83.9 µM (inactive)
GI50 (HCT-15): 80.5 µM
GI50 (HL-60): 63.4 µM (inactive)
GI50 (HOP-18): 91 µM (inactive)
GI50 (HOP-62): > 100 µM (inactive)
GI50 (HOP-92): 38.9 µM (inactive)
GI50 (HT-29): 86.1 µM (inactive)
GI50 (IGROV-1): 69.2 µM (inactive)
GI50 (K562): 60.4 µM (inactive)
GI50 (KM-20L2): > 100 µM (inactive)
GI50 (KM12): 58.6 µM (inactive)
GI50 (LOX IMVI): 30 µM (inactive)
GI50 (LXFL 529): 39 µM (inactive)
GI50 (M14): > 100 µM (inactive)
GI50 (M19-MEL): > 100 µM (inactive)
GI50 (MOLT-4): 84.5 µM (inactive)
GI50 (Malme-3M): > 100 µM (inactive)
GI50 (NCI-H226): > 100 µM (inactive)
GI50 (NCI-H23): 87.1 µM (inactive)
GI50 (NCI-H460): 68.7 µM (inactive)
GI50 (OVCAR-3): 54.8 µM (inactive)
GI50 (OVCAR-4): 77.8 µM (inactive)
GI50 (OVCAR-5): > 100 µM (inactive)
GI50 (OVCAR-8): 55.5 µM (inactive)
GI50 (RPMI-8226): 70.8 µM (inactive)
GI50 (RXF 393): 51.6 µM (inactive)
GI50 (RXF 631): 73.8 µM (inactive)
GI50 (SF-268): > 100 µM (inactive)
GI50 (SF-295): 28 µM (inactive)
GI50 (SF-539): > 100 µM (inactive)
GI50 (SK-MEL-28): 88.7 µM (inactive)
GI50 (SK-MEL-2): > 100 µM (inactive)
GI50 (SK-MEL-5): 39.2 µM (inactive)
GI50 (SK-OV-3): > 100 µM (inactive)
GI50 (SN12C): > 100 µM (inactive)
GI50 (SNB-75): > 100 µM (inactive)
GI50 (SNB-78): > 100 µM (inactive)
GI50 (SR): 58.1 µM (inactive)
GI50 (TK-10): 47.8 µM (inactive)
GI50 (U-251): 69.5 µM (inactive)
GI50 (UACC-257): 39.3 µM (inactive)
GI50 (UACC-62): 85.9 µM (inactive)
GI50 (UO-31): 46.7 µM (inactive)

Cc1ccc(C)c(NC(=O)C(=O)CC(=O)c2cccc3ccccc23)c1
GI50 (786-0): > 100 µM (inactive)
GI50 (A498): > 100 µM (inactive)
GI50 (A549): > 100 µM (inactive)
GI50 (ACHN): > 100 µM (inactive)
GI50 (CAKI-1): > 100 µM (inactive)
GI50 (CCRF-CEM): > 100 µM (inactive)
GI50 (COLO 205): > 100 µM (inactive)
GI50 (DLD-1): > 100 µM (inactive)
GI50 (DMS-114): > 100 µM (inactive)
GI50 (DMS-273): > 100 µM (inactive)
GI50 (EKVX): > 100 µM (inactive)
GI50 (HCC 2998): > 100 µM (inactive)
GI50 (HCT-116): > 100 µM (inactive)
GI50 (HCT-15): > 100 µM
GI50 (HL-60): > 100 µM (inactive)
GI50 (HOP-18): > 100 µM (inactive)
GI50 (HOP-62): > 100 µM (inactive)
GI50 (HOP-92): > 100 µM (inactive)
GI50 (HT-29): > 100 µM (inactive)
GI50 (IGROV-1): > 100 µM (inactive)
GI50 (K562): > 100 µM (inactive)
GI50 (KM-20L2): > 100 µM (inactive)
GI50 (KM12): > 100 µM (inactive)
GI50 (LOX IMVI): > 100 µM (inactive)
GI50 (LXFL 529): > 100 µM (inactive)
GI50 (M14): > 100 µM (inactive)
GI50 (M19-MEL): > 100 µM (inactive)
GI50 (MOLT-4): > 100 µM (inactive)
GI50 (Malme-3M): > 100 µM (inactive)
GI50 (NCI-H226): > 100 µM (inactive)
GI50 (NCI-H23): > 100 µM (inactive)
GI50 (NCI-H460): > 100 µM (inactive)
GI50 (NCI-H522): > 100 µM (inactive)
GI50 (OVCAR-3): > 100 µM (inactive)
GI50 (OVCAR-4): > 100 µM (inactive)
GI50 (OVCAR-5): > 100 µM (inactive)
GI50 (OVCAR-8): > 100 µM (inactive)
GI50 (RPMI-8226): > 100 µM (inactive)
GI50 (RXF 393): > 100 µM (inactive)
GI50 (RXF 631): > 100 µM (inactive)
GI50 (SF-268): > 100 µM (inactive)
GI50 (SF-295): > 100 µM (inactive)
GI50 (SF-539): > 100 µM (inactive)
GI50 (SK-MEL-28): > 100 µM (inactive)
GI50 (SK-MEL-2): > 100 µM (inactive)
GI50 (SK-MEL-5): > 100 µM (inactive)
GI50 (SK-OV-3): > 100 µM (inactive)
GI50 (SN12C): > 100 µM (inactive)
GI50 (SNB-19): > 100 µM (inactive)
GI50 (SNB-75): > 100 µM (inactive)
GI50 (SNB-78): > 100 µM (inactive)
GI50 (SR): > 100 µM (inactive)
GI50 (SW-620): > 100 µM (inactive)
GI50 (TK-10): > 100 µM (inactive)
GI50 (U-251): > 100 µM (inactive)
GI50 (UACC-257): > 100 µM (inactive)
GI50 (UACC-62): > 100 µM (inactive)
GI50 (UO-31): > 100 µM (inactive)
